According to US12195490B2, “STRAD-binding agents and uses thereof” (The Regents of the University of California, priority 2020, dated 2025):

target: T1, LKB1 (Homo sapiens, UniProt Q15831+Q7RTN6); experiment: in vitro LKB1 functional activity; assay type: biochemical; settings: APA analogs
T1 sequence (Q15831 1-433): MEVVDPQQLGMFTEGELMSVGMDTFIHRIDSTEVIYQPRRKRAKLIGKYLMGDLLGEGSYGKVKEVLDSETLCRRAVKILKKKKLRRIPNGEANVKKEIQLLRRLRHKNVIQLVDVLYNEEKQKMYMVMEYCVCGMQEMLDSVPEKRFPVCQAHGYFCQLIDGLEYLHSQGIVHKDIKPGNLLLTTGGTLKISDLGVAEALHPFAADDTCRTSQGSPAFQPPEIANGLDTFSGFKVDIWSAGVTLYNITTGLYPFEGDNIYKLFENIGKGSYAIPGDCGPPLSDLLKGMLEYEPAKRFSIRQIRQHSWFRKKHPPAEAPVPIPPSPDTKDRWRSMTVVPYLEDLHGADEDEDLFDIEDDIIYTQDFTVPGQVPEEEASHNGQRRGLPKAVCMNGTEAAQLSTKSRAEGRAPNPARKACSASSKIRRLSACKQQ
T1 sequence (Q7RTN6 1-431): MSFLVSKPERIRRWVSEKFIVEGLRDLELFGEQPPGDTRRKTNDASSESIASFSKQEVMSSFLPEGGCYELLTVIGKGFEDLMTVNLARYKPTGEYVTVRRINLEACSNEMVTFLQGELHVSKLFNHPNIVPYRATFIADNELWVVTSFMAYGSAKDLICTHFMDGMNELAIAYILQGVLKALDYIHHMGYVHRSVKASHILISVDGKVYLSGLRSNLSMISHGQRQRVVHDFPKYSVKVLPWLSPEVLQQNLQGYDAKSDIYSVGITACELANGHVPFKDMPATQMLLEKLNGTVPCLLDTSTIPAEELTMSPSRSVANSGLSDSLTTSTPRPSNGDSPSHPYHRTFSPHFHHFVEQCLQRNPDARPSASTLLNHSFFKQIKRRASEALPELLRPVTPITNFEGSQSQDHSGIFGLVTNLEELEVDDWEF
T1 sequence (Q9Y376 1-341 partner): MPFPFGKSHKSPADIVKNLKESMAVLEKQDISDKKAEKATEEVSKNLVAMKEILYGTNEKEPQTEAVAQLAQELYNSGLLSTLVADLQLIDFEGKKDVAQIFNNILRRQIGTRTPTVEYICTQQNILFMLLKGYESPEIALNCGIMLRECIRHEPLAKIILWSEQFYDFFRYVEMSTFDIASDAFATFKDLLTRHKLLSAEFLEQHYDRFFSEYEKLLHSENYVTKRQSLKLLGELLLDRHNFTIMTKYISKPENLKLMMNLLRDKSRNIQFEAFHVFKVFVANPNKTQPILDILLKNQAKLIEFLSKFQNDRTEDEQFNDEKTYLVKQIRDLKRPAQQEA

LKB1 % Act. Increase | SMILES
C (C=199-1000%) | CC(=O)NS(=O)(=O)c1ccc(NC(=O)c2nc(-c3ccc(C)s3)cnc2N)cc1 [SU20668-0349, N-(4-(N-acetylsulfamoyl)phenyl)-3-amino-6-(5-methylthiophen-2-yl)pyrazine-2-carboxamide]
C (C=199-1000%) | Cc1ccc(-c2cnc(N)c(C(=O)Nc3ccc(S(N)(=O)=O)c(F)c3)n2)cc1 [SU20668-0305, 3-amino-N-(3-fluoro-4-sulfamoylphenyl)-6-p-tolylpyrazine-2-carboxamide]
A (A=>4000%) | Cc1ccc(-c2cnc(N)c(C(=O)Nc3ccc(S(=O)(=O)CC4COC4)cc3)n2)cc1 [SU20668-0494, 3-amino-N-(4-(oxetan-3-ylmethylsulfonyl)phenyl)-6-p-tolylpyrazine-2-carboxamide]
B (B=399-2000%) | CCP(=O)(CC)CS(=O)(=O)c1ccc(NC(=O)c2nc(-c3ccc(C)cc3)cnc2N)cc1 [SU20668-0491, 3-amino-N-(4-((diethylphosphoryl)methylsulfonyl)phenyl)-6-p-tolylpyrazine-2-carboxamide]
D (D=<1000%) | Cc1ccc(-c2cnc(N)c(C(=O)Nc3ccc4c(c3)CNS4(=O)=O)n2)cc1 [SU20668-0288]
D (D=<1000%) | COC(=O)c1ccc(NC(=O)c2nc(-c3ccc(C)cc3)cnc2N)cc1F [SU20668-0307, methyl 4-(3-amino-6-p-tolylpyrazine-2-carboxamido)-2-fluorobenzoate]
B (B=399-2000%) | Cc1ccc(-c2cnc(N)c(C(=O)Nc3ccc(S(=O)(=O)CC4CCO4)cc3)n2)cc1 (centres unmarked) [SU20668-0500, 3-amino-N-(4-(oxetan-2-ylmethylsulfonyl)phenyl)-6-p-tolylpyrazine-2-carboxamide]
D (D=<1000%) | CC(=O)NS(=O)(=O)c1ccc(NC(=O)c2nc(-c3ccc(OC(F)(F)F)cc3)cnc2N)cc1 [SU20668-0392, N-(4-(N-acetylsulfamoyl)phenyl)-3-amino-6-(4-(trifluoromethoxy)phenyl)pyrazine-2-carboxamide]
D (D=<1000%) | Cc1ccc(-c2cnc(N)c(C(=O)Nc3ccc(S(=O)(=O)C(F)(F)F)cc3)n2)cc1 [SU20668-0292, 3-amino-6-p-tolyl-N-(4-(trifluoromethylsulfonyl)phenyl)pyrazine-2-carboxamide]
C (C=199-1000%) | Cc1ccc(-c2cnc(N)c(C(=O)Nc3ccc(S(C)(=N)=O)cc3)n2)cc1 (centres unmarked) [SU20668-0490]
C (C=199-1000%) | CC(=O)NS(=O)(=O)c1ccc(NC(=O)c2nc(-c3ccncc3F)cnc2N)cc1 [SU20668-0374, N-(4-(N-acetylsulfamoyl)phenyl)-3-amino-6-(3-fluoropyridin-4-yl)pyrazine-2-carboxamide]
C (C=199-1000%) | Cc1ccc(-c2cnc(N)c(C(=O)Nc3ccc(C(=O)O)cc3)n2)cc1 [SU20668-0279, 4-(3-amino-6-p-tolylpyrazine-2-carboxamido)benzoic acid]
C (C=199-1000%) | CCS(=O)(=O)c1cccc(-c2cnc(N)c(C(=O)Nc3ccc(S(=O)(=O)NC(C)=O)cc3)n2)c1 [SU20668-0373, N-(4-(N-acetylsulfamoyl)phenyl)-3-amino-6-(3-(ethylsulfonyl)phenyl)pyrazine-2-carboxamide]
D (D=<1000%) | Cc1ccc(-c2cnc(N)c(C(=O)Nc3ccc(C(=O)O)nc3)n2)cc1 [SU20668-0300, 5-(3-amino-6-p-tolylpyrazine-2-carboxamido)picolinic acid]
B (B=399-2000%) | Cc1ccc(-c2cnc(N)c(C(=O)Nc3ccc(S(=O)(=O)CP(C)(C)=O)cc3)n2)cc1 [SU20668-0492, 3-amino-N-[4-(dimethylphosphorylmethylsulfonyl)phenyl]-6-(p-tolyl)pyrazine-2-carboxamide]
D (D=<1000%) | Cc1ccc(-c2cnc(N)c(C(=O)Nc3ccc(S(=O)(=O)NC(=O)C(C)C)cc3)n2)cc1 [SU20668-0327, 3-amino-N-(4-(N-isobutyrylsulfamoyl)phenyl)-6-p-tolylpyrazine-2-carboxamide]
C (C=199-1000%) | CC(=O)NS(=O)(=O)c1ccc(NC(=O)c2nc(-c3ccc4cn[nH]c4c3)cnc2N)cc1 [SU20668-0343, N-(4-(N-acetylsulfamoyl)phenyl)-3-amino-6-(1H-indazol-6-yl)pyrazine-2-carboxamide]
D (D=<1000%) | Cc1ccc(-c2cnc(N)c(C(=O)Nc3ccc(S(=O)(=O)CC(=O)O)cc3)n2)cc1 [SU20668-0310, 2-(4-(3-amino-6-p-tolylpyrazine-2-carboxamido)phenylsulfonyl)acetic acid]
C (C=199-1000%) | Cc1ccc(-c2cnc(N)c(C(=O)Nc3ccc(C(=O)OC(C)(C)C)c(F)c3)n2)cc1 [SU20668-0308, tert-butyl 4-(3-amino-6-p-tolylpyrazine-2-carboxamido)-2-fluorobenzoate]
B (B=399-2000%) | Cc1ccc(-c2cnc(N)c(C(=O)Nc3ccc(S(=O)(=O)NC4(C)COC4)cc3)n2)cc1 [SU20668-0510, 3-amino-N-(4-(N-(3-methyloxetan-3-yl)sulfamoyl)phenyl)-6-p-tolylpyrazine-2-carboxamide]
D (D=<1000%) | Cc1ccc(-c2cnc(N)c(C(=O)Nc3ccc(S(=O)(=O)NC(=O)CCc4ccccc4)cc3)n2)cc1 [SU20668-0328, 3-amino-N-(4-(N-(3-phenylpropanoyl)sulfamoyl)phenyl)-6-p-tolylpyrazine-2-carboxamide]

SMILES | LKB1 % Act. Increase
CCOP(=O)(C[S@SP3](=O)(=O)c1ccc(NC(=O)c2nc(-c3ccc(C)cc3)cnc2N)cc1)OCC [SU20668-0313, diethyl (((4-(3-amino-6-(p-tolyl)pyrazine-2-carboxamido)phenyl)sulfonyl)methyl)phosphonate] | C (C=199-1000%)
CCOP(C)(=O)CS(=O)(=O)c1ccc(NC(=O)c2nc(-c3ccc(C)cc3)cnc2N)cc1 (centres unmarked) [SU20668-0472, ethyl (4-(3-amino-6-p-tolylpyrazine-2-carboxamido)phenylsulfonyl)methyl(methyl)phosphinate] | A (A=>4000%)
CCOP(=O)(O)CS(=O)(=O)c1ccc(NC(=O)c2nc(-c3ccc(C)cc3)cnc2N)cc1 [SU20668-0338, ethyl hydrogen (((4-(3-amino-6-(p-tolyl)pyrazine-2-carboxamido)phenyl)sulfonyl)methyl)phosphonate] | D (D=<1000%)
CCO[P@@](C)(=O)CS(=O)(=O)c1ccc(NC(=O)c2nc(-c3ccc(C)cc3)cnc2N)cc1 [SU20668-0517, (R)-ethyl (4-(3-amino-6-p-tolylpyrazine-2-carboxamido)phenylsulfonyl)methyl(methyl)phosphinate] | B (B=399-2000%)
CCOP(=O)(CS(=O)(=O)c1ccc(NC(=O)c2nc(-c3ccc(C)cc3)cnc2N)cc1F)OCC [SU20668-0482, diethyl (4-(3-amino-6-p-tolylpyrazine-2-carboxamido)-2-fluorophenylsulfonyl)methylphosphonate] | D (D=<1000%)
COP(=O)(CS(=O)(=O)c1ccc(NC(=O)c2nc(-c3ccc(C)cc3C)cnc2N)cc1)OC [SU20668-0450, dimethyl (4-(3-amino-6-(2,4-dimethylphenyl)pyrazine-2-carboxamido)phenylsulfonyl)methylphosphonate] | D (D=<1000%)
COP(=O)(CS(=O)(=O)c1ccc(NC(=O)c2nc(-c3ccc(C)c(O)c3)cnc2N)cc1)OC [SU20668-0496, dimethyl (4-(3-amino-6-(3-hydroxy-4-methylphenyl)pyrazine-2-carboxamido)phenylsulfonyl)methylphosphonate] | C (C=199-1000%)
COP(=O)(CS(=O)(=O)c1ccc(NC(=O)c2nc(-c3ccc(S(C)(=O)=O)cc3)cnc2N)cc1)OC [SU20668-0447, dimethyl (4-(3-amino-6-(4-(methylsulfonyl)phenyl)pyrazine-2-carboxamido)phenylsulfonyl)methylphosphonate] | D (D=<1000%)

system: most sensitive cancer cell line; experiment: cell activity: CTG anti-proliferation in most sensitive cancer cell line; assay type: cell-based; settings: APA analogs

SMILES | IC50
CC(=O)NS(=O)(=O)c1ccc(NC(=O)c2nc(-c3ccc(C)s3)cnc2N)cc1 [SU20668-0349, N-(4-(N-acetylsulfamoyl)phenyl)-3-amino-6-(5-methylthiophen-2-yl)pyrazine-2-carboxamide] | 3 to 50 µM
CCOP(=O)(C[S@SP3](=O)(=O)c1ccc(NC(=O)c2nc(-c3ccc(C)cc3)cnc2N)cc1)OCC [SU20668-0313, diethyl (((4-(3-amino-6-(p-tolyl)pyrazine-2-carboxamido)phenyl)sulfonyl)methyl)phosphonate] | < 3 µM
Cc1ccc(-c2cnc(N)c(C(=O)Nc3ccc(S(N)(=O)=O)c(F)c3)n2)cc1 [SU20668-0305, 3-amino-N-(3-fluoro-4-sulfamoylphenyl)-6-p-tolylpyrazine-2-carboxamide] | < 3 µM
CCOP(C)(=O)CS(=O)(=O)c1ccc(NC(=O)c2nc(-c3ccc(C)cc3)cnc2N)cc1 (centres unmarked) [SU20668-0472, ethyl (4-(3-amino-6-p-tolylpyrazine-2-carboxamido)phenylsulfonyl)methyl(methyl)phosphinate] | < 3 µM
Cc1ccc(-c2cnc(N)c(C(=O)Nc3ccc(S(=O)(=O)CC4COC4)cc3)n2)cc1 [SU20668-0494, 3-amino-N-(4-(oxetan-3-ylmethylsulfonyl)phenyl)-6-p-tolylpyrazine-2-carboxamide] | < 3 µM
CCOP(=O)(OCC)C(F)S(=O)(=O)c1ccc(NC(=O)c2nc(-c3ccc(C)cc3)cnc2N)cc1 (centres unmarked) [SU20668-0485] | < 3 µM
